Our source for the Ki values is BindingDB's records for doi:10.1021/jm00011a008 (Upjohn, 1995).

This assay addresses T1, Dimer of Gag-Pol polyprotein [489-587] (Human immunodeficiency virus 1, UniProt P12497).
T1 construct: 489-587
Description: Protease Inhibition Assay. The conditions noted are these: pH 5; 22 °C.

pKi: −log10 of the molar value.

Description: HIV-1 protease was purified and refolded from E. coli inclusion bodies. […] In the presence of HIV-l protease, the substrate is rapidly cleaved into two parts. The biotinylated amino terminal fragment binds to the avidin beads while the FITC-containing carboxy1 terminal fragment is removed through the membrane. […] The bound fluorescence is obtained by processing on an IDEXX Screen Machine. Determination of Ki values with this assay requires analysis under conditions in which substrate concentration resides substantially below Km and the inhibitor concentrations greatly exceeds the Ki value and the enzyme concentration.

In the case of `O=c1oc2c(c(O)c1C(c1ccccc1)c1ccccc1)CCCCCC2` [3-(Diphenylmethyl)-5,6,7,8,9,1O-hexahydro-4-hydroxy-W-cycloocta[b]pyran-2-one], the negative-log Ki (pKi) was 6.74.
Turning to `CCCC(c1ccccc1)c1c(O)c2c(oc1=O)CCCCCC2` (stereo not given) [4-hydroxy-3-(1-phenylbutyl)-2H,5H,6H,7H,8H,9H,10H-cycloocta[b]pyran-2-one], the negative-log Ki (pKi) was 7.54.
In the case of `CC(C)C(c1ccccc1)c1c(O)c2c(oc1=O)CCCCCC2` (stereo not given) [5,6,7,8,9,1O-Hexahydro-4-hydroxy-3-(2-methyl-nylpropyl)-W-cycloocta[b]pyran-2-one] it was 7.66; in that of `CC(C)CC(c1ccccc1)c1c(O)c2c(oc1=O)CCCCCC2` (stereo not drawn) [5,6,7,8,9,1O-Hexahydro-4-hydroxy-3-(3-methyl-l-phe-nylbutyl)-W-cycloocta[b]pyran-2-one], 7.05; in that of `CCCCC(c1ccccc1)c1c(O)c2c(oc1=O)CCCCCC2` (stereo not given) [5,6,7,8,9,10-Hexahydroro-4-hydroxy-1-phenylpentyl)-W-cycloocta[blpyran-2-one], 7.21.

As usually defined, the pKi is −log10 of the Ki, conventionally taken in molar units.
